According to patent US20260070945A1, “MACROCYCLIC IMMUNOMODULATORS” (Bristol-Myers Squibb Company, priority 2022, published 2026):
Where a SMILES comes first, the peptide text is derived from it. Bridges are numbered along the chain shown (N, C = ends). [ ]: non-standard residue; d: D form. The star is where a group is joined. ξ: configuration not given here. Phe(4-COOH) = N[C@@H](Cc1ccc(C(=O)O)cc1)C(=O)O; Bip = N[C@@H](Cc1ccc(-c2ccccc2)cc1)C(=O)O; 4Pal = N[C@@H](Cc1ccncc1)C(=O)O; Cha = N[C@@H](CC1CCCCC1)C(=O)O; Ile(3ξ) = CCC(C)[C@H](N)C(=O)O; Thr(3ξ) = CC(O)[C@H](N)C(=O)O; Ala(CN) = N#CC[C@H](N)C(=O)O; Carboxymethyl = O=C(O)C*; NMeA = CN[C@@H](C)C(=O)O; dDap = NC[C@@H](N)C(=O)O; Aun = NCCCCCCCCCCC(=O)O; Dab = NCC[C@H](N)C(=O)O; Dap = NC[C@H](N)C(=O)O; AEEA = NCCOCCOCC(=O)O

Biological target: T1, PD-1/PD-L1 interaction (PE-labeled human PD-L1-Ig binding to Jurkat cell line over-expressing human PD-1) (Homo sapiens, UniProt Q15116)
T1 construct: expressed in transfected cells; host or cells: Jurkat
Assay: Jurkat-PD-1 Cell Binding High-Content Screening Assay (CBA)
Conditions: Jurkat-hPD-1 cells, PE-labeled PD-L1-Ig 20 nM final; read-out: Jurkat HPD1 PDL1 IC50
Outline: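 Read-out: high-content imaging of cell-bound PE fluorescence, with Hoechst 33342 nuclear counterstain after paraformaldehyde fixation. Before labeled ligand (20 nM final, 1 h) was added, compound sat on the cells for 2 h at 37 °C in DMEM/10% FCS.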

T1 sequence (Q15116 25-288): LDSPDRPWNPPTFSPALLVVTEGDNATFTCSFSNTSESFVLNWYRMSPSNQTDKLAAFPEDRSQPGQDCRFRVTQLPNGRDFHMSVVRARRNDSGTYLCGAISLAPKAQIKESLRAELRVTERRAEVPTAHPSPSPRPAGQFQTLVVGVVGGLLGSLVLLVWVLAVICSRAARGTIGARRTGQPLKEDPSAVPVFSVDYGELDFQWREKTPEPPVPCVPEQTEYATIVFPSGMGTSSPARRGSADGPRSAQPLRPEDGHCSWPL

In order of falling IC50:
1. CCC(C)[C@@H]1NC(=O)[C@H](Cc2ccc(-c3ccccc3)cc2)NC(=O)[C@H](CC(C)C)NC(=O)[C@H](Cc2c[nH]c3ccccc23)NC(=O)[C@H](CC(=O)O)NC(=O)[C@H](Cc2ccc(O)cc2)NC(=O)[C@H](Cc2ccccc2)NC(=O)CSC[C@@H](C(=O)N[C@@H](CN)C(=O)NCCOCCOCC(=O)NCCCCCCCCCCC(=O)O)NC(=O)[C@H](CO)NC(=O)[C@H](C(C)C)NC(=O)[C@H](CC2CCCCC2)NC(=O)[C@H](CCN)NC(=O)[C@@H](CC(C)C)NC(=O)[C@H](C)N(C)C1=O (stereo partly drawn) [Example 2055] ({CH2CO}-FYDWL[Bip][Ile(3ξ)][NMeA][dL][Dab][Cha]VSC[Dap][AEEA][Aun]-OH; thioether N-14)  0.101 µM
2. CCC(C)[C@@H]1NC(=O)[C@H](Cc2ccc(-c3ccccc3)cc2)NC(=O)[C@H](CC(C)C)NC(=O)[C@H](Cc2c[nH]c3ccccc23)NC(=O)[C@H](CC(=O)O)NC(=O)[C@H](Cc2ccc(O)cc2)NC(=O)[C@H](Cc2ccncc2)NC(=O)CSC[C@@H](C(=O)N[C@@H](CN)C(=O)NCCOCCOCC(=O)NCCCCCCCCCCC(=O)O)NC(=O)[C@H](CO)NC(=O)[C@H](C(C)C)NC(=O)[C@H](CC(C)C)NC(=O)[C@H](CC(N)=O)NC(=O)[C@@H](CC(C)C)NC(=O)[C@H](C)N(C)C1=O (stereo partly drawn) [Example 2053] ({CH2CO}-[4Pal]YDWL[Bip][Ile(3ξ)][NMeA][dL]NLVSC[Dap][AEEA][Aun]-OH; thioether N-14)  0.0662 µM
3. CCC(C)[C@@H]1NC(=O)[C@H](Cc2ccc(-c3ccccc3)cc2)NC(=O)[C@H](CC(C)C)NC(=O)[C@H](Cc2c[nH]c3ccccc23)NC(=O)[C@H](CC(=O)O)NC(=O)[C@H](Cc2ccc(OCC(=O)O)cc2)NC(=O)[C@H](C(C)O)NC(=O)CSC[C@@H](C(=O)N[C@H](CC(N)=O)C(=O)NCCOCCOCC(=O)NCCCCCCCCCCC(=O)O)NC(=O)[C@H](CO)NC(=O)[C@H](C(C)C)NC(=O)[C@H](CC(C)C)NC(=O)[C@H](CCN)NC(=O)[C@@H](CC(C)C)NC(=O)[C@H](C)N(C)C1=O (stereo partly drawn) [Example 2058] ({CH2CO}-[Thr(3ξ)]Y(Carboxymethyl)DWL[Bip][Ile(3ξ)][NMeA][dL][Dab]LVSC[dN][AEEA][Aun]-OH; thioether N-14)  0.0599 µM
4. CCC(C)[C@@H]1NC(=O)[C@H](Cc2ccc(-c3ccccc3)cc2)NC(=O)[C@H](CC(C)C)NC(=O)[C@H](Cc2c[nH]c3ccccc23)NC(=O)[C@H](CC(=O)O)NC(=O)[C@H](Cc2ccc(C(=O)O)cc2)NC(=O)[C@H](Cc2ccc(OCC(=O)O)cc2)NC(=O)CSC[C@@H](C(=O)NCCOCCOCC(=O)N[C@H](CN)C(=O)NCCOCCOCC(=O)NCCCCCCCCCCC(=O)O)NC(=O)[C@H](CO)NC(=O)[C@H](C(C)C)NC(=O)[C@H](CC2CCCCC2)NC(=O)[C@H](CCN)NC(=O)[C@@H](CC(C)C)NC(=O)[C@H](C)N(C)C1=O (stereo partly drawn) [Example 2056] ({CH2CO}-Y(Carboxymethyl)[Phe(4-COOH)]DWL[Bip][Ile(3ξ)][NMeA][dL][Dab][Cha]VSC[AEEA][dDap][AEEA][Aun]-OH; thioether N-14)  0.02 µM
5. CCC(C)[C@@H]1NC(=O)[C@H](Cc2ccc(-c3ccccc3)cc2)NC(=O)[C@H](CC(C)C)NC(=O)[C@H](Cc2c[nH]c3ccccc23)NC(=O)[C@H](CC(=O)O)NC(=O)[C@H](Cc2ccc(O)cc2)NC(=O)[C@H](CC#N)NC(=O)CSC[C@@H](C(=O)N[C@@H](CN)C(=O)NCCOCCOCC(=O)NCCCCCCCCCCC(=O)O)NC(=O)[C@H](CO)NC(=O)[C@H](C(C)C)NC(=O)[C@H](CC2CCCCC2)NC(=O)[C@H](CCN)NC(=O)[C@@H](CC(C)C)NC(=O)[C@H](C)N(C)C1=O (stereo partly drawn) [Example 2054] ({CH2CO}-[Ala(CN)]YDWL[Bip][Ile(3ξ)][NMeA][dL][Dab][Cha]VSC[Dap][AEEA][Aun]-OH; thioether N-14)  0.0143 µM
